From patent US7268124B2, “Geranylgeranyl pyrophosphate synthase inhibitors” (University of Iowa Research Foundation, priority 2004, dated 2007)
Where a name gives a salt, the structure may show the parent alone.

What was measured:
Assay type in all cases: biochemical
FPTase = FPTase (Homo sapiens, UniProt P49356); assay: FPTase enzyme inhibition; conditions: mammalian enzyme; also no inhibition at 1 to 10 nanomolar; read-out: FPTase: not inhibited at concentrations as high as
From the text: The ability of a compound of the invention to act as an inhibitor of geranylgeranyl pyrophosphate synthase may be determined using pharmacological models which are well known to the art, for example see Holstein, S. A., et al., Biochemistry 2003, 42, 4384-4391; and Ericsson et al, J. Biological Chemistry, 1993, 268, 832-838. The ability of a compound to inhibit FPP synthase, FPTase, and GGPTase can also be determined using pharmacological models which are well known to the art. The selectivity of a compound as an inhibitor of geranylgeranyl pyrophosphate synthase can be evaluated by comparing it's inhibitory activity against this enzyme with it's activity against another enzyme. In one embodiment of the invention, the compound of the invention is at least 2-fold selective for inhibiting geranylgeranyl pyrophosphate synthase compared to farnesylpyrophosphate. In another embodiment the compound is at least 10-fold selective for inhibiting geranylgeranyl pyrophosphate synthase compared to farnesylpyrophosphate. In another embodiment the compound is at least about 100-fold selective for inhibiting geranylgeranyl pyrophosphate synthase compared to farnesylpyrophosphate. In another embodiment of the invention, the compound of the invention is at least 2-fold selective for inhibiting geranylgeranyl pyrophosphate synthase compared to FPTase or GGPTase. […]

FPP synthase = biological target: T1, FPP synthase (Homo sapiens, UniProt P14324); assay: FPP synthase enzyme inhibition; conditions: mammalian enzyme; also no inhibition at 1 to 10 nanomolar; read-out: FPP synthase: not inhibited at concentrations as high as
T1 sequence (P14324 1-419): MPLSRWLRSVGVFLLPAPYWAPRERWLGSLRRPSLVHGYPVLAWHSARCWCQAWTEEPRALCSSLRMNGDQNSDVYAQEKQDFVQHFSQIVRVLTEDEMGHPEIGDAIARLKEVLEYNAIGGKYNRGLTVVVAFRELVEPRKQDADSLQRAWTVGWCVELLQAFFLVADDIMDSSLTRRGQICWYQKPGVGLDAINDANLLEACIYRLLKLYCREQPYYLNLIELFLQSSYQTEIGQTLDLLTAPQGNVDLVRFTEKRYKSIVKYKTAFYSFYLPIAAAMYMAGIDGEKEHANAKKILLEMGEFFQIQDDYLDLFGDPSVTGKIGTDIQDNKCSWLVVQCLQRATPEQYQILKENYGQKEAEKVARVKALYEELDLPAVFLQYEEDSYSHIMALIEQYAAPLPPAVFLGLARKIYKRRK
From the text: (§1) The ability of a compound of the invention to act as an inhibitor of geranylgeranyl pyrophosphate synthase may be determined using pharmacological models which are well known to the art, for example see Holstein, S. A., et al., Biochemistry 2003, 42, 4384-4391; and Ericsson et al, J. Biological Chemistry, 1993, 268, 832-838. The ability of a compound to inhibit FPP synthase, FPTase, and GGPTase can also be determined using pharmacological models which are well known to the art. The selectivity of a compound as an inhibitor of geranylgeranyl pyrophosphate synthase can be evaluated by comparing it's inhibitory activity against this enzyme with it's activity against another enzyme.

mammalian GGPP synthase = biological target: T2, mammalian GGPP synthase (Homo sapiens, UniProt O95749); assay: GGPP synthase enzyme inhibition; conditions: read-out: concentration range that inhibits GGPP synthase by 50%
T2 sequence (O95749 1-300): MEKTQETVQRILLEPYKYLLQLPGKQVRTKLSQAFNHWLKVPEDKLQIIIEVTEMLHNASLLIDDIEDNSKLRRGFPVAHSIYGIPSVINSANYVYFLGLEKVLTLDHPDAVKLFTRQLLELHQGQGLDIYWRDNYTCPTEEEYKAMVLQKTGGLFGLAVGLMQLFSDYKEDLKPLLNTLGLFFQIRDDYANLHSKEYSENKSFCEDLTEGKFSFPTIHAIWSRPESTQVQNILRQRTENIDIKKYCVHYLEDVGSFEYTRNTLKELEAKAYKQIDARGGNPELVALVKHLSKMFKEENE
From the text: as §1

Row | IC50 (mammalian GGPP synthase) | SMILES | IC50 (FPTase) | IC50 (FPP synthase)
1 |  | CC(C)=CCC/C(C)=C/CC(C/C=C(\C)CCC=C(C)C)(P(=O)(O)O)P(=O)(O)O [Compound 12, 1-(3,7-dimethyl-octa-2,6-dienyl)-4,8-dimethyl-nona-3,7-dienyl-1,1-bisphosphonic acid, tetrasodium salt] | > 50 µM | > 50 µM
2 | 0.001 to 0.01 µM | CC(C)=CCC/C(C)=C/CC(C/C=C(\C)CCC=C(C)C)(P(=O)(OCOC(=O)C(C)(C)C)OCOC(=O)C(C)(C)C)P(=O)(OCOC(=O)C(C)(C)C)OCOC(=O)C(C)(C)C [Compound 13, tetrapivaloyloxymethyl (E)-1,1-bis(4,8-dimethyl-nona-3,7-dienyl)-1,1-bisphosphonate] | > 50 µM | > 50 µM
